One series addresses T1, Carboxypeptidase B2 (Homo sapiens, UniProt Q96IY4).
T1 sequence (Q96IY4 whole entry): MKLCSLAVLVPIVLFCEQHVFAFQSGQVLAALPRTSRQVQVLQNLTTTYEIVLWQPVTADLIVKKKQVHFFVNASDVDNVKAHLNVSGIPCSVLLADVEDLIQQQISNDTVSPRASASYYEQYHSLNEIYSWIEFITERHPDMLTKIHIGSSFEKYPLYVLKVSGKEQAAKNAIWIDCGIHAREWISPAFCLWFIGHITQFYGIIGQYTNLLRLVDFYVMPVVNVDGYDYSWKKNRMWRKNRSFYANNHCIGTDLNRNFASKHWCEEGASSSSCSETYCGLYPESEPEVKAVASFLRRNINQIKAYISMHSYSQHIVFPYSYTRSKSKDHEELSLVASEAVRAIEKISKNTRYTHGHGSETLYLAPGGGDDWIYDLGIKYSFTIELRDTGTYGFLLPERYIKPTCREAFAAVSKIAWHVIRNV

In series [1] the target is T2, Coagulation factor XII (Homo sapiens) (UniProt P00748).
T2 sequence (whole entry): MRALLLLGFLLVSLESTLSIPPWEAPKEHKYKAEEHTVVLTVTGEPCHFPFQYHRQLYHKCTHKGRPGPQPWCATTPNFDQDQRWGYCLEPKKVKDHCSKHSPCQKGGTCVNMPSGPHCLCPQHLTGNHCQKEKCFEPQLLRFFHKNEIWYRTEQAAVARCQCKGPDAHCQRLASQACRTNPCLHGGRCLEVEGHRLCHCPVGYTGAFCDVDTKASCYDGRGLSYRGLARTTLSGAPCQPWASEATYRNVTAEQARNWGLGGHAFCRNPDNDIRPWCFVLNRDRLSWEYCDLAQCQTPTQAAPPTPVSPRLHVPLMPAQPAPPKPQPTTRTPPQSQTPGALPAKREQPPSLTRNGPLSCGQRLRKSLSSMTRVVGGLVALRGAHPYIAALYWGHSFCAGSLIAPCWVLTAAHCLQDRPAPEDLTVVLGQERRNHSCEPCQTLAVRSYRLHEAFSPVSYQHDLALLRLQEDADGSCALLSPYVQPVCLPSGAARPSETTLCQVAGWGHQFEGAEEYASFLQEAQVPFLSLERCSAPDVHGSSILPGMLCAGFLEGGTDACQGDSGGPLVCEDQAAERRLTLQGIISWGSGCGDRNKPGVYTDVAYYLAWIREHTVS
Briefly: Inhibition of factor 12a (unknown origin) at 100 uM relative to control.

The target in series [2] is Plasma kallikrein (Homo sapiens) (UniProt P03952). As to conditions: 100 uM.
Sequence of Plasma kallikrein (Homo sapiens) (P03952 20-390 limits assumed): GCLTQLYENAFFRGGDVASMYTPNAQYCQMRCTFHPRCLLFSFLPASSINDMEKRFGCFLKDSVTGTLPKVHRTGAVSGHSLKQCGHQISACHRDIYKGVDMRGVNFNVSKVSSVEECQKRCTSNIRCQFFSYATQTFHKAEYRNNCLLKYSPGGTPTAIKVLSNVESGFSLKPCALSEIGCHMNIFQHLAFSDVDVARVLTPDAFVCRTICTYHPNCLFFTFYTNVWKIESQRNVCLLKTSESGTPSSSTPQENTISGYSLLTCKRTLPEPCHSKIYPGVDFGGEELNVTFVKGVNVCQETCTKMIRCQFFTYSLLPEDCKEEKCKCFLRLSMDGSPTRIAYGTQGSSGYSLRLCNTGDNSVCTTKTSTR
Sequence of Plasma kallikrein (Homo sapiens) (P03952 391-638 limits assumed): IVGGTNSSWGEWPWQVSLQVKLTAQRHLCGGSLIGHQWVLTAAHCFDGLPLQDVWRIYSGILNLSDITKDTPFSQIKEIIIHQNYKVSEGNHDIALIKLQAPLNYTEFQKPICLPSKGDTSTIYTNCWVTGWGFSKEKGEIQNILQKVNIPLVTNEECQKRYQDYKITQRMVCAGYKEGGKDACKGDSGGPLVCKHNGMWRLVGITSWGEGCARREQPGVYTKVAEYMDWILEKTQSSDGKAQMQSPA
Description: Inhibition of KLKB1 (unknown origin) at 100 uM relative to control
Series [3] addresses Plasminogen (Homo sapiens) (UniProt P00747). The experiment in a line: Inhibition of plasmin (unknown origin) at 100 uM relative to control.
Series [4] has as its target T3, Complement C1s subcomponent (Homo sapiens) (UniProt P09871).
T3 sequence (whole entry): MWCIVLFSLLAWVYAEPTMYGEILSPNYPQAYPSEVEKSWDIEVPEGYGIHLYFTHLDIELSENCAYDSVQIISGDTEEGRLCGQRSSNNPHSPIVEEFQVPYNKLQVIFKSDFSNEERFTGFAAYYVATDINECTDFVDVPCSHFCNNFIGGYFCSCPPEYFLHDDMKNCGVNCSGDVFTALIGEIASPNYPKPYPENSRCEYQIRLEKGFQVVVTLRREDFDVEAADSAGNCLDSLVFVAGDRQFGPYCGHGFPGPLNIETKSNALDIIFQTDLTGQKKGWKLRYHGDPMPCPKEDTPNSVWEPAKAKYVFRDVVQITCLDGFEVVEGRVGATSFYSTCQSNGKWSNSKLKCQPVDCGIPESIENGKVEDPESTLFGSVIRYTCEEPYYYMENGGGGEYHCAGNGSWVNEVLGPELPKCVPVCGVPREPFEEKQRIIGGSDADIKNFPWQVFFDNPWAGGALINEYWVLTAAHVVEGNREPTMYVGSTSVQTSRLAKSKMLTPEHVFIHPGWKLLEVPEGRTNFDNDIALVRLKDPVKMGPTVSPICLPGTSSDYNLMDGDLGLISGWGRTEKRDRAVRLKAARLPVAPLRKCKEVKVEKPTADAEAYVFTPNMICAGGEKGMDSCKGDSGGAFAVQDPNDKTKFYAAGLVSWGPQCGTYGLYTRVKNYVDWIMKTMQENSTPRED
Briefly: Inhibition of C1s (unknown origin) at 100 uM relative to control.

For series [5], the species on record is Homo sapiens. The experiment in a line: Inhibition of tryptase (unknown origin) at 100 uM relative to control.
Series [6] has as its target Coagulation factor X (Homo sapiens) (UniProt P00742). The experiment in a line: Inhibition of factor 10a (unknown origin) at 100 uM relative to control.
The target of series [7] is Prothrombin (Homo sapiens) (UniProt P00734). The experiment in a line: Inhibition of factor 2a (unknown origin) at 100 uM relative to control.
For series [8], the species on record is Homo sapiens. Briefly: Inhibition of trypsin (unknown origin) at 100 uM relative to control.
Series [9] deals with Coagulation factor XI (Homo sapiens) (UniProt P03951). The experiment in a line: Inhibition of factor 11a (unknown origin) at 100 uM relative to control.
Sequence of Coagulation factor XI (Homo sapiens) (P03951 19-387 limits assumed): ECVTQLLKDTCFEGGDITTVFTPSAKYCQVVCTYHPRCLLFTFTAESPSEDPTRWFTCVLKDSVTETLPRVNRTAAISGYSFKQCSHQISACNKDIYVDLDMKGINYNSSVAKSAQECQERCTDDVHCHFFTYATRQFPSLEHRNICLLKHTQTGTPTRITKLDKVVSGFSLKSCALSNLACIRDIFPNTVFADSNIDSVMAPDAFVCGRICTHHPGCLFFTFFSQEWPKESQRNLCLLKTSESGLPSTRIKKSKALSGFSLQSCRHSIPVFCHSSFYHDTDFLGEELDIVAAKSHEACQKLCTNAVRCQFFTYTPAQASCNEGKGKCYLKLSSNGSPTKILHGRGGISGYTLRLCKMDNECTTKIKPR
Sequence of Coagulation factor XI (Homo sapiens) (P03951 388-625 limits assumed): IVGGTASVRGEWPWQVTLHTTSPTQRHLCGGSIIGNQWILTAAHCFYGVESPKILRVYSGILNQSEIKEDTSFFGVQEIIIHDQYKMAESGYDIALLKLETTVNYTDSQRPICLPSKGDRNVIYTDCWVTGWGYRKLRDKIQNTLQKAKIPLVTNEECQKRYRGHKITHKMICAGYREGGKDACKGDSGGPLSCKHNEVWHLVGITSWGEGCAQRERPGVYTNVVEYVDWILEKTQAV
For series [10], the target named is T4, Coagulation factor VII (Homo sapiens) (UniProt P08709).
T4 sequence (whole entry): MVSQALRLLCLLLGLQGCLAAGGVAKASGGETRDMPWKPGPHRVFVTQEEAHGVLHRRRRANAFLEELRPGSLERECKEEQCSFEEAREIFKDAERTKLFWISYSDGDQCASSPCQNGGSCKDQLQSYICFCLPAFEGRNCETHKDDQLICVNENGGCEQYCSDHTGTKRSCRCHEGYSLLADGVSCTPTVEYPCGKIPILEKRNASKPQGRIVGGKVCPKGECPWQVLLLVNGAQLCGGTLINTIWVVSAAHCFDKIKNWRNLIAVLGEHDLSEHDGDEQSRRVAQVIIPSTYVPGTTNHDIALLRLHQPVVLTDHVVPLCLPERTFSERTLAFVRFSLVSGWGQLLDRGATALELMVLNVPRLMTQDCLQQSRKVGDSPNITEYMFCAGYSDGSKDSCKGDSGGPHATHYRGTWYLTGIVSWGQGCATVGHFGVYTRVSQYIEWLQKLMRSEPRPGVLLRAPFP
Briefly: Inhibition of factor 7a (unknown origin) at 100 uM relative to control.

Series [11] concerns the target Tissue-type plasminogen activator (Homo sapiens) (UniProt P00750). The experiment in a line: Inhibition of tPA (unknown origin) at 100 uM relative to control.
Series [12] addresses Urokinase-type plasminogen activator (Homo sapiens) (UniProt P00749). The experiment in a line: Inhibition of urokinase (unknown origin) at 100 uM relative to control.
Series [13] can be described thus: Terminal half life in Sprague-Dawley rat at 1 mg/kg, iv administered as bolus dose measured up to 24 hrs. The series is classed as ADME, organism-based. Conditions: in vivo, read-out: beta t1/2 (converted).
Series [14] in a line: Drug excretion in Sprague-Dawley rat urine at 1 mg/kg, iv administered as bolus dose after 24 hrs. The series is classed as ADME, organism-based. Conditions: read-out: Drug excretion.
A short description of series [15]: Initial plasma concentration in Sprague-Dawley rat at 1 mg/kg, iv administered as bolus dose measured up to 4 hrs. The class given is ADME, organism-based.
A short description of series [16]: Volume distribution at steady state in Sprague-Dawley rat at 1 mg/kg, iv administered as bolus dose measured up to 24 hrs. The series is classed as ADME, organism-based. Conditions: in vivo, read-out: Vdss.
Series [17] can be described thus: Clearance in Sprague-Dawley rat at 1 mg/kg, iv administered as bolus dose measured up to 24 hrs. The series is classed as ADME, organism-based. Conditions: in vivo.

A word on the IC50: it is the concentration that gives 50% inhibition. By inhibition is commonly meant the relative decrease from the control value, in per cent. A higher inhibition goes with a response far below the control. Usually clearance stands for a measure of how efficiently the substance is removed, as volume per time.

Sequence of Coagulation factor X (Homo sapiens) (P00742 41-179 limits assumed): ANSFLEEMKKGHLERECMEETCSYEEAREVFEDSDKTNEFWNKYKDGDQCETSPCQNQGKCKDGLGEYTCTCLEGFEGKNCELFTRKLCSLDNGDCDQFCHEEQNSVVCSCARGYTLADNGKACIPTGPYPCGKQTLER
Sequence of Coagulation factor X (Homo sapiens) (P00742 235-488 limits assumed): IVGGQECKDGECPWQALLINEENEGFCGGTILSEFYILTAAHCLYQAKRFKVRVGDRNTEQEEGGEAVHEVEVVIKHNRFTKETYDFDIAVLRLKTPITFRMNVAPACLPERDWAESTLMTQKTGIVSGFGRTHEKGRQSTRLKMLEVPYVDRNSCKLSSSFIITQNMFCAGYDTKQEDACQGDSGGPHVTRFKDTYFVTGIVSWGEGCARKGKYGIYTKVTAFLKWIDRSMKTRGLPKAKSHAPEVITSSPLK
Sequence of Tissue-type plasminogen activator (Homo sapiens) (P00750 36-562 limits assumed): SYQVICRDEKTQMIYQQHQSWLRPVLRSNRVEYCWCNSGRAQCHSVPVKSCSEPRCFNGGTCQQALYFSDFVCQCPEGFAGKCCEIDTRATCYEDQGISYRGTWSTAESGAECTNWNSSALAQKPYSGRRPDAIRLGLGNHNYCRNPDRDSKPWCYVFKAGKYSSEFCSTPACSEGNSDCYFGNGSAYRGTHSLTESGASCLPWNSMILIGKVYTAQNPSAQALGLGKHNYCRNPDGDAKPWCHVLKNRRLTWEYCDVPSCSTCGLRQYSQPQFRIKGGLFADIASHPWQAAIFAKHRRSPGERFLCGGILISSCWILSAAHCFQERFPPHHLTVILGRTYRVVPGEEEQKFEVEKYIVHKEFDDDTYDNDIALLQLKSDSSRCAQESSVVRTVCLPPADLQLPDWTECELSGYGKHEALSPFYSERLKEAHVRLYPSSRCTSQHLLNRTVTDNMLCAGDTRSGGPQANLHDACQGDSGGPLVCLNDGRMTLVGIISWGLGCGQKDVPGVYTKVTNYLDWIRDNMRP
Sequence of Plasminogen (Homo sapiens) (P00747 97-580 limits assumed): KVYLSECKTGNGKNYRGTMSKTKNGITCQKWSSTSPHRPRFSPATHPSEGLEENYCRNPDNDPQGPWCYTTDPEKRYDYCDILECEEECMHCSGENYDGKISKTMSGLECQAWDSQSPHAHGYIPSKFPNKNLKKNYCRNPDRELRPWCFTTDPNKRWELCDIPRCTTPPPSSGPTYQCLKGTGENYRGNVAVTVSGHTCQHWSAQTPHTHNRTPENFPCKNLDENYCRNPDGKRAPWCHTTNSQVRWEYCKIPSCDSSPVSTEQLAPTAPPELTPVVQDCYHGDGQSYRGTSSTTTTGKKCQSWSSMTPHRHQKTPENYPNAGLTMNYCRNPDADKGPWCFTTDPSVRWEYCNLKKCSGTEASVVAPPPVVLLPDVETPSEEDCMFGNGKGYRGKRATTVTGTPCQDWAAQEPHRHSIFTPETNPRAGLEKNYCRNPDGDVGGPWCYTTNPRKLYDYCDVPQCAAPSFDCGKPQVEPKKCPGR
Sequence of Plasminogen (Homo sapiens) (P00747 581-810 limits assumed): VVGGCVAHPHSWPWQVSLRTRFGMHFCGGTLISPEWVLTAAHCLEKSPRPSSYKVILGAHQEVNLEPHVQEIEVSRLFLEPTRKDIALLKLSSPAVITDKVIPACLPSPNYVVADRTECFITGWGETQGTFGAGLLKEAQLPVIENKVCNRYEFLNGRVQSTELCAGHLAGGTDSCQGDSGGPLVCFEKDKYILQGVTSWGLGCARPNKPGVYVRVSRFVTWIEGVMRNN
Description for Carboxypeptidase B2: Inhibition of activated human plasma TAFI incubated for 15 mins by chromogenic assay

For the molecule `CC1(C)[C@@H]2CC[C@@]1(C)[C@@H](NC(=O)[C@H](CC1CCCCC1)NS(=O)(=O)N[C@@H](CCCCO)C(=O)O)C2`, at Carboxypeptidase B2, the IC50 is > 30 µM. For the molecule `CC1(C)C2CCC1(C)[C@@H](NC(=O)[C@H](CC1CCCCC1)NC(=O)N[C@@H](CCCCN)C(=O)O)C2` (stereo partly specified), on Carboxypeptidase B2, the midpoint of inhibition, the IC50, lay at 0.003 µM. This lies in the single-digit nanomolar range. `CC1(C)[C@@H]2CC[C@@]1(C)[C@@H](NC(=O)[C@H](CC1CCCCC1)NS(=O)(=O)N[C@@H](CCCCNC(N)=O)C(=O)O)C2`: on Carboxypeptidase B2, the IC50 was > 30 µM.

`CC1(C)[C@@H]2CC[C@@]1(C)[C@@H](NC(=O)[C@H](CC1CCCCC1)NS(=O)(=O)N[C@@H](CCCCN)C(=O)O)C2` [listing 1 of 2 here]: the inhibition (in [1]; in series [2]; in [3]; in series [4]; in the series listed under Homo sapiens [5]; in series [6]) was < 40% throughout. Further, the inhibition (in series [7]; in the series filed under Homo sapiens [8]; in [9]; in series [10]; in series [11]; in [12]) was < 40% throughout. Take `CC1(C)[C@@H]2CC[C@@]1(C)[C@@H](NC(=O)[C@H](CC1CCCCC1)NS(=O)(=O)N[C@@H](CCCCN)C(=O)O)C2` [listing 2 of 2 here]: in series [13], the half-life is 1.7 h. The dose excreted at 24 h in [14] stood at 4%. Besides, in [15], the C0 at 4 h worked out at 3800 ng/mL. In addition, the Vd in series [16] turned out to be 0.38 L/kg. Besides, the clearance in series [17] is 11.7 mL/min/kg. Turning to `CC1(C)[C@@H]2CC[C@@]1(C)[C@@H](NC(=O)[C@H](CC1CCCCC1)NS(=O)(=O)N[C@@H](CC1CCC(N)CC1)C(=O)O)C2` (stereo partly specified), the IC50 against Carboxypeptidase B2 was > 30 µM. Same read-out and setting: the figure for `CC(C)[C@H](NS(=O)(=O)N[C@@H](CCCCN)C(=O)O)C(=O)NC12CC3CC(CC(C3)C1)C2` is > 30 µM; for `CC1(C)[C@@H]2CC[C@@]1(C)[C@@H](NC(=O)[C@@H](NS(=O)(=O)N[C@@H](CCCCN)C(=O)O)C1CCCCC1)C2` it is 47 µM; for `CC1(C)C2CCC1(C)C(OC(=O)[C@H](CC1CCCCC1)NS(=O)(=O)N[C@@H](CCCCN)C(=O)O)C2` (stereo partly specified) it is 6.4 µM. As for `NCCCC[C@H](NS(N)(=O)=O)C(=O)O`, at Carboxypeptidase B2, the midpoint of inhibition, the IC50, lay at 15 µM. Still for that read-out and setting: for `CC(C)(C)NC(=O)[C@H](CC1CCCCC1)NS(=O)(=O)N[C@@H](CCCCN)C(=O)O` the value was 6.7 µM; for `CC1(C)[C@@H]2CC[C@@]1(C)[C@@H](NC(=O)[C@H](CC1CCCCC1)NS(=O)(=O)N[C@@H](CCCC(N)=O)C(=O)O)C2`, > 30 µM; for `CC(=O)NCCCC[C@H](NS(=O)(=O)N[C@@H](CC1CCCCC1)C(=O)N[C@H]1C[C@H]2CC[C@]1(C)C2(C)C)C(=O)O`, > 30 µM. On to `NCCCC[C@H](NS(=O)(=O)NCC(=O)NC12CC3CC(CC(C3)C1)C2)C(=O)O`, for which the IC50 against Carboxypeptidase B2 is > 30 µM. With `NCCCC[C@H](NS(=O)(=O)N[C@H](C(=O)NC12CC3CC(CC(C3)C1)C2)c1ccccc1)C(=O)O`, the IC50 at Carboxypeptidase B2 is > 30 µM. Consider `C[C@H](NS(=O)(=O)N[C@@H](CCCCN)C(=O)O)C(=O)NC12CC3CC(CC(C3)C1)C2`, for which the IC50 at Carboxypeptidase B2 is > 30 µM.

The values above are taken from ChEMBL document CHEMBL3860098, “Sulfamide as Zinc Binding Motif in Small Molecule Inhibitors of Activated Thrombin Activatable Fibrinolysis Inhibitor (TAFIa)” (J Med Chem, 2016).
